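Assay format: 96-well plates, 48-hour exposure. GI50: concentration for 50% inhibition of growth. TGI: concentration producing complete growth inhibition.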
Experiments:
Experiment in all cases: NCI tumour cell line growth inhibition, 48 h
BT-549 breast = tested on: BT-549 breast
HCT-15 colon = tested on: HCT-15 colon
HT29 colon = tested on: HT29 colon
LOX IMVI melanoma = tested on: LOX IMVI melanoma
MDA-MB-435 = tested on: MDA-MB-435
MOLT-4 leukemia = tested on: MOLT-4 leukemia
NCI/ADR-RES ovarian = tested on: NCI/ADR-RES ovarian
OVCAR-3 ovarian = tested on: OVCAR-3 ovarian
OVCAR-4 ovarian = tested on: OVCAR-4 ovarian
RXF 393 renal = tested on: RXF 393 renal

COc1ccc(-c2[nH]c3ccc(OC)cc3c2/C=C(\C#N)S(=O)(=O)c2ccccc2)cc1
GI50 (BT-549 breast): 4.51 µM | TGI (BT-549 breast): > 100 µM | GI50 (HCT-15 colon): 0.614 µM | TGI (HCT-15 colon): > 100 µM | GI50 (HT29 colon): 0.435 µM | TGI (HT29 colon): > 32.2 µM | GI50 (LOX IMVI melanoma): 1.15 µM | TGI (LOX IMVI melanoma): > 100 µM | GI50 (MDA-MB-435): 0.272 µM | TGI (MDA-MB-435): > 100 µM | GI50 (MOLT-4 leukemia): 0.745 µM | TGI (MOLT-4 leukemia): > 20.2 µM | GI50 (NCI/ADR-RES ovarian): 0.479 µM | TGI (NCI/ADR-RES ovarian): 9.22 µM | GI50 (OVCAR-3 ovarian): 0.356 µM | TGI (OVCAR-3 ovarian): 1.62 µM | GI50 (OVCAR-4 ovarian): 2.09 µM | TGI (OVCAR-4 ovarian): > 100 µM | GI50 (RXF 393 renal): > 100 µM | TGI (RXF 393 renal): > 100 µM

CCc1nc2cc(F)c(/C=C/C(=O)NO)cc2c(=O)n1CCc1ccccc1
GI50 (BT-549 breast): 0.377 µM | TGI (BT-549 breast): 12.6 µM | GI50 (HCT-15 colon): 0.36 µM | TGI (HCT-15 colon): 18.6 µM | GI50 (HT29 colon): 0.343 µM | TGI (HT29 colon): 12.1 µM | GI50 (LOX IMVI melanoma): 0.208 µM | TGI (LOX IMVI melanoma): 0.46 µM | GI50 (MDA-MB-435): 0.445 µM | TGI (MDA-MB-435): 11.5 µM | GI50 (MOLT-4 leukemia): 0.353 µM | TGI (MOLT-4 leukemia): 29.1 µM | GI50 (NCI/ADR-RES ovarian): 0.284 µM | TGI (NCI/ADR-RES ovarian): 0.982 µM | GI50 (OVCAR-3 ovarian): 0.323 µM | TGI (OVCAR-3 ovarian): 10.8 µM | GI50 (OVCAR-4 ovarian): 0.314 µM | TGI (OVCAR-4 ovarian): 14.9 µM | GI50 (RXF 393 renal): 0.23 µM | TGI (RXF 393 renal): 0.731 µM

Cc1cc2nc(C=C(C(F)(F)F)C(F)(F)F)oc2cc1C
TGI (BT-549 breast): 6.13 µM | TGI (HCT-15 colon): 9.62 µM | TGI (HT29 colon): 7.76 µM | TGI (LOX IMVI melanoma): 3.96 µM | TGI (MDA-MB-435): 4.21 µM | TGI (MOLT-4 leukemia): 5.66 µM | TGI (NCI/ADR-RES ovarian): 5.93 µM | TGI (OVCAR-3 ovarian): 4.35 µM | TGI (OVCAR-4 ovarian): 7.78 µM | TGI (RXF 393 renal): 4.92 µM

COc1c(C(=O)/C=C/c2ccccc2)c(O)cc2occc12
GI50 (BT-549 breast): 7.72 µM | TGI (BT-549 breast): 27.8 µM | GI50 (HCT-15 colon): 5.25 µM | TGI (HCT-15 colon): 22.7 µM | GI50 (HT29 colon): 6.34 µM | TGI (HT29 colon): 35.6 µM | GI50 (LOX IMVI melanoma): 1.69 µM | TGI (LOX IMVI melanoma): 3.31 µM | GI50 (MDA-MB-435): 3.21 µM | TGI (MDA-MB-435): 13.2 µM | GI50 (MOLT-4 leukemia): 3.36 µM | TGI (MOLT-4 leukemia): > 100 µM | GI50 (NCI/ADR-RES ovarian): 2.42 µM | TGI (NCI/ADR-RES ovarian): 6.32 µM | GI50 (OVCAR-3 ovarian): 3.76 µM | TGI (OVCAR-3 ovarian): 11.3 µM | GI50 (OVCAR-4 ovarian): 5.4 µM | TGI (OVCAR-4 ovarian): 26.6 µM | GI50 (RXF 393 renal): 3.56 µM | TGI (RXF 393 renal): 15.6 µM

CC/C=C\C[C@H](O)C/C=C1/C(=O)C=C[C@@H]1C/C=C\CCCC(=O)OC
GI50 (BT-549 breast): 2.15 µM | TGI (BT-549 breast): 6.07 µM | GI50 (HCT-15 colon): 0.538 µM | TGI (HCT-15 colon): 2.79 µM | GI50 (HT29 colon): 1.61 µM | TGI (HT29 colon): 3.8 µM | GI50 (LOX IMVI melanoma): 0.237 µM | TGI (LOX IMVI melanoma): 0.609 µM | GI50 (MDA-MB-435): 1.19 µM | TGI (MDA-MB-435): 10 µM | GI50 (MOLT-4 leukemia): 0.945 µM | TGI (MOLT-4 leukemia): 4.8 µM | GI50 (NCI/ADR-RES ovarian): 2.61 µM | TGI (NCI/ADR-RES ovarian): 10.8 µM | GI50 (OVCAR-3 ovarian): 0.692 µM | TGI (OVCAR-3 ovarian): 2.13 µM | GI50 (OVCAR-4 ovarian): 3.48 µM | TGI (OVCAR-4 ovarian): 16.2 µM | GI50 (RXF 393 renal): 1.91 µM | TGI (RXF 393 renal): 3.58 µM

CN1CCN(CCCNc2nc3ccc(Oc4ccc(NC(=O)Nc5cc(C(F)(F)F)ccc5F)cc4)cc3[nH]2)CC1
GI50 (BT-549 breast): 4.23 µM | TGI (BT-549 breast): 8.04 µM | GI50 (HCT-15 colon): > 25 µM | TGI (HCT-15 colon): > 25 µM | GI50 (HT29 colon): 4.09 µM | TGI (HT29 colon): 7.93 µM | GI50 (LOX IMVI melanoma): 4.25 µM | TGI (LOX IMVI melanoma): 7.91 µM | GI50 (MDA-MB-435): 4.1 µM | TGI (MDA-MB-435): 7.78 µM | GI50 (MOLT-4 leukemia): 4.83 µM | TGI (MOLT-4 leukemia): 9.89 µM | GI50 (NCI/ADR-RES ovarian): > 25 µM | TGI (NCI/ADR-RES ovarian): > 25 µM | GI50 (OVCAR-3 ovarian): 4.49 µM | TGI (OVCAR-3 ovarian): 9.65 µM | GI50 (OVCAR-4 ovarian): 5.88 µM | TGI (OVCAR-4 ovarian): > 19.5 µM | GI50 (RXF 393 renal): 4.07 µM | TGI (RXF 393 renal): 9.17 µM

NS(=O)(=O)c1ccc(-c2ccc3c(NC(=O)C4CC4)n[nH]c3c2)cc1
GI50 (BT-549 breast): > 25 µM | TGI (BT-549 breast): > 25 µM | GI50 (HCT-15 colon): > 25 µM | TGI (HCT-15 colon): > 25 µM | GI50 (HT29 colon): > 25 µM | TGI (HT29 colon): > 25 µM | GI50 (LOX IMVI melanoma): > 25 µM | TGI (LOX IMVI melanoma): > 25 µM | GI50 (MDA-MB-435): > 25 µM | TGI (MDA-MB-435): > 25 µM | GI50 (MOLT-4 leukemia): > 25 µM | TGI (MOLT-4 leukemia): > 25 µM | GI50 (NCI/ADR-RES ovarian): > 25 µM | TGI (NCI/ADR-RES ovarian): > 25 µM | GI50 (OVCAR-3 ovarian): > 25 µM | TGI (OVCAR-3 ovarian): > 25 µM | GI50 (OVCAR-4 ovarian): > 25 µM | TGI (OVCAR-4 ovarian): > 25 µM | GI50 (RXF 393 renal): > 25 µM | TGI (RXF 393 renal): > 25 µM

Cc1ccc(N=C/C=C(\Nc2ccc(C)cc2)c2ccc(Cl)cc2)cc1
GI50 (BT-549 breast): 11.2 µM | TGI (BT-549 breast): 29.2 µM | GI50 (HCT-15 colon): 5.77 µM | TGI (HCT-15 colon): > 100 µM | GI50 (HT29 colon): 4 µM | TGI (HT29 colon): > 100 µM | GI50 (LOX IMVI melanoma): 5.58 µM | TGI (LOX IMVI melanoma): > 100 µM | GI50 (MDA-MB-435): 2.82 µM | TGI (MDA-MB-435): 12 µM | GI50 (MOLT-4 leukemia): 4.25 µM | TGI (MOLT-4 leukemia): > 100 µM | GI50 (NCI/ADR-RES ovarian): 5.1 µM | TGI (NCI/ADR-RES ovarian): 22.1 µM | GI50 (OVCAR-3 ovarian): 8.06 µM | TGI (OVCAR-3 ovarian): 77.9 µM | GI50 (OVCAR-4 ovarian): 47.4 µM | TGI (OVCAR-4 ovarian): > 100 µM | GI50 (RXF 393 renal): 17.6 µM | TGI (RXF 393 renal): 59.2 µM

CN1CCc2nc(N)nc(-c3nc(N)nc4c3CN(C)CC4)c2C1
TGI (BT-549 breast): > 100 µM | TGI (HCT-15 colon): > 100 µM | TGI (HT29 colon): > 100 µM | TGI (LOX IMVI melanoma): > 100 µM | TGI (MDA-MB-435): > 100 µM | TGI (MOLT-4 leukemia): > 100 µM | TGI (NCI/ADR-RES ovarian): > 100 µM | TGI (OVCAR-3 ovarian): > 100 µM | TGI (OVCAR-4 ovarian): > 100 µM | TGI (RXF 393 renal): > 100 µM

Cc1ccc(NC(=O)c2cccc(C(C)(C)C#N)c2)cc1Nc1ccc2ncn(C)c(=O)c2c1
GI50 (BT-549 breast): 5.17 µM | TGI (BT-549 breast): > 100 µM | GI50 (HCT-15 colon): 3.11 µM | TGI (HCT-15 colon): > 100 µM | GI50 (HT29 colon): 0.032 µM | TGI (HT29 colon): > 100 µM | GI50 (LOX IMVI melanoma): 0.0585 µM | TGI (LOX IMVI melanoma): > 67.5 µM | GI50 (MDA-MB-435): 0.0625 µM | TGI (MDA-MB-435): > 100 µM | GI50 (MOLT-4 leukemia): 5.2 µM | TGI (MOLT-4 leukemia): > 100 µM | GI50 (NCI/ADR-RES ovarian): 4.12 µM | TGI (NCI/ADR-RES ovarian): > 100 µM | GI50 (OVCAR-3 ovarian): 13.4 µM | TGI (OVCAR-3 ovarian): > 100 µM | GI50 (OVCAR-4 ovarian): 3.9 µM | TGI (OVCAR-4 ovarian): > 100 µM | GI50 (RXF 393 renal): 6.87 µM | TGI (RXF 393 renal): > 73.4 µM

CN(C)CCNc1ccc(CO)c2oc3ccc(O)cc3c(=O)c12
TGI (BT-549 breast): 28.4 µM | TGI (HCT-15 colon): 29.9 µM | TGI (HT29 colon): 44.9 µM | TGI (LOX IMVI melanoma): 27 µM | TGI (MDA-MB-435): 27.1 µM | TGI (MOLT-4 leukemia): 14.3 µM | TGI (NCI/ADR-RES ovarian): 74.3 µM | TGI (OVCAR-3 ovarian): 42.1 µM | TGI (OVCAR-4 ovarian): 28.7 µM | TGI (RXF 393 renal): 28.4 µM

— PubChem BioAssay (NCI)
